“Also recorded” adds a separate entry of the source. Where two headings read alike, the source gives them in different places. Where a SMILES comes first, the peptide text is derived from it. Bridges are numbered along the chain shown (N, C = ends).
How the values were obtained:
[1] = test system: HIV-1 strain IIIB; assay: HIV-1 IIIB infection of CD4+ PBMC, p24 antigen ELISA; format: cell-based; conditions: for inhibition of HIV-1 replication (p24): CD4+ PBMC, IIIB (X4), peptide 10-20 μg/ml
Experimental: FIG. 5A-C. Anti-HIV-1 activity of retrocyclin. Two strains of HIV-1 and two types of human target cells were used. The IIIB strain is T-cell tropic (X4) and utilizes the CXCR4 co-receptor for entry; the JR-CSF strain is M-tropic (R5) and uses CCR5 for entry. PBMC signifies CD4^+-selected peripheral blood mononuclear cells. […] (A) Two concentrations of retrocyclin (2 μg/ml, 20 μg/ml), 20 μg/ml of the Rhesus circular defensin “RTD-1”, and 20 μg/ml of a horseshoe crab-derived peptide “T140”, reported to only prevent X4 infections, were tested in antiviral assays of against strain IIIB in H9 cells (n=2-6 per peptide; error bars indicate SEM). (B) To confirm our results with primary human cells, similar assays were performed utilizing IIIB virus and CD4^+ PBMC or (C) JR-CSF virus and CD4^+ PBMC. […] Average of duplicate experiments are reported for studies with PBMCs. Assay sensitivity=10 pg/ml.
Either HIV-1-permissive H9 cells were used as targets, or primary CD4^+ lymphocytes from HIV-1-seronegative donors generated from freshly purified peripheral blood mononuclear cells (PBMC) stimulated with a CD3-CD8 bispecific monoclonal antibody. […] These cells were maintained in RPMI containing 10% FCS supplemented with 2 mM glutamine, 100 U of penicillin/ml, 10 μg of streptomycin/ml, and 50 U of interleukin 2/ml (R10-50 media).
Examining the effect of adding retrocyclin at various times pre- and post-HIV-1 infection. […] Primary CD4^+ PBMC were incubated with HIV-IIIB (FIG. 6) or HIV-JR-CSF for 3 hours in the presence or absence of 20 μg/ml retrocyclin. The cells were subsequently washed in media, and incubated an additional 9 days. Retrocyclin (20 μg/ml) was added back to some of the cultures at time points specified in FIG. 6 and infection was monitored by p24 ELISA as previously described. […]

[2] = test system: HIV-1 strain JR-CSF; assay: HIV proviral DNA formation, quantitative real time PCR in CD4+-selected PBMC; format: cell-based; conditions: 20 μg/ml, MOI 0.1
Excerpt: FIG. 13. Retrocyclin and RC-101 inhibited the formation of HIV proviral DNA. Retrocyclin and RC-101 inhibited the formation of DNA from both early events (total HIV DNA) and later events (full-length HIV DNA) of reverse transcription. Data are an average of 2 experiments, except for RC-101 (1 experiment). “HI virus” is a heat-inactivated virus control for background levels of viral DNA.
Retrocyclin inhibits HIV replication at an early step (reverse transcription or before). To determine whether retrocyclin blocked the formation of proviral DNA in HIV-JR-CSF-inoculated CD4^+-selected PBMC, quantitative real time PCR was performed. This method is more sensitive than measuring p24 release and can detect infection even when p24 values may be affected by virus carried over from the original inoculum. CD4^+-selected PBMC (10^6 cells) were incubated in 250 μl at 37° C./5% CO2 for 3 hr with either HIV-1 strain JR-CSF (MOI=0.1), heat-inactivated virus (background control), JR-CSF+20 μg/ml retrocyclin or JR-CSF+20 μg RC-101. Cells were washed and resuspended in 1 ml R10-50 media, and incubated for an additional 9 hours. Following incubation, cells were pelleted at 300×g, removed of overlying supernatant, and stored at −80° C. until analyzed by real time PCR.

[3] = test system: HSV-2; assay: HSV inactivation microplate assay on ME-180 cells (MTT); format: cell-based; conditions: 2-50 μg/ml, 2 hrs with virus, 72 hrs culture
Experimental: FIG. 14. Inactivation of HSV-1 and HSV-2 by retrocyclin and RC-101. Retrocyclin (left panel) and RC-101 (right panel) at the indicated concentrations were incubated with herpes simplex virus, type 1 (HSV-1) or HSV-2 for 2 hrs and then added to ME-180 cell monolayers. Cells were incubated at 37° C. for 72 hrs, and cytotoxicity was measured with an MTT kit.
Some retrocyclins are slightly active against herpes simplex virus (HSV). To determine if the activity of retrocyclin against HIV-1 was specific or representative of a more global antiviral effect, it was tested its ability to prevent HSV infection in vitro. A quantitative microplate assay was used to screen retrocyclin and retrocyclin-congeners for their ability to inactivate HSV type 1 (HSV-1) and HSV-2. The assay utilized small amounts of peptide and simultaneously evaluated for peptide-induced cytotoxicity. In brief, final peptide concentrations of 2-50 μg/ml were incubated with virus stocks for 2 hrs and added directly to ME-180 human cervical carcinoma cells. Cultures were incubated at 37° C. for 72 hrs and cytotoxicity was measured using a 3-(4,5-dimethylthiazon-2-yl)-2,5-diphenyltetrazolium bromide (MTT) cell proliferation kit (Boehringer-Mannheim, Germany). Calculations to assess antiviral activity and compute “percent protection” are delineated in (90).

[4] = biological target: T1, CD4 (Homo sapiens, UniProt P01730); assay: Surface plasmon resonance binding; conditions: immobilized CD4
T1 construct: Recombinant human soluble CD4 (full-length 45 kDa glycosylated ectodomain); purchased Protein Sciences Corporation, Meriden, Conn; host or cells: ExpresSF+ S. frugiperda cells
Excerpt: Surface plasmon resonance. Recombinant human soluble CD4 (full-length 45 kDa glycosylated ectodomain) was produced by ExpresSF+S. frugiperda cells in serum-free medium (Protein Sciences Corporation, Meriden, Conn.). Glycosylated HIV-1 gp120 (LAV) envelope glycoprotein (Catalog No. 2003-LAV) was purchased from the same source. Recombinant HIV-1BaL was obtained through the AIDS Research and Reference Reagent Program, Division of AIDS, National Institute of Allergy and Infectious Disease, NIH.
Surface plasmon resonance (SPR) experiments were done with a Biacore 2000 system (Biacore, Inc., Piscataway, N.J.). The running buffer (pH 7.4) contained 10 mM HEPES, 150 mM NaCl, 3 mM EDTA and 0.005% polysorbate 20. The immobilized proteins (gp120-LAV and CD4) were dissolved at 20 μg/ml in 10 mM sodium acetate, pH 5.0 and immobilized on a Biacore CM5 sensor chip using the amine coupling method. The chip was activated by mixing 400 mM EDC (N-ethyl-N-(3-dimethylaminopropyl)-carbodiimide hydrochloride) and 100 mM N-hydroxysuccinimide. […] Residual reactive groups on the chip surface were blocked using 1.0 Methanolamine/HCl, pH 8.5.
The flow cell chip used as a control lacked immobilized protein but was otherwise treated as above. Signals were corrected for nonspecific binding by subtracting the control signal. To regenerate the chip surface, bound ligands were removed with 10 mM HCl. Data were analyzed with BIAevaluation 3.1 software. Curve fitting was done with an assumption of 1:1 binding.
In those experiments, biosensor chips containing immobilized gp120 or CD4 were perfused with a 1 μg/ml solution of the peptides, and binding was measured by surface plasmon resonance. […] No binding studies were performed with gp120 preparations derived from non-B HIV-1 subtypes.

[5] = test system: CD4+ PBMC; conditions: for cytotoxicity (trypan blue exclusion): 20 μg/ml, HIV-1-infected CD4+ PBMC; for average number of cells: 20 μg/ml peptide, CD4+ PBMC

Compound | inhibition of HIV-1 replication (p24) [1] | formation of HIV-1 proviral DNA [2] | protection against HSV-2 [3] | koff [4] [s⁻¹] | kon [4] [M⁻¹ s⁻¹] | cytotoxicity (trypan blue exclusion) [5] | reduction of p24 concentration ([1]; 20 μg/ml added 24 hours after initial infection) [fold] | average number of cells ([5]; IIIB) [mL⁻¹] | average number of cells ([5]; JR-CSF) [mL⁻¹] | average number of cells ([5]; no virus) [mL⁻¹]
CC[C@H](C)[C@@H]1NC(=O)CNC(=O)[C@H](CCCCN)NC(=O)CNC(=O)[C@@H]2CSSC[C@H](NC1=O)C(=O)N[C@@H](CCCNC(=N)N)C(=O)N[C@H]1CSSC[C@H](NC(=O)[C@H](CCCNC(=N)N)NC(=O)[C@@H]3CSSC[C@H](NC(=O)[C@H]([C@@H](C)CC)NC1=O)C(=O)NCC(=O)N[C@@H](CCCNC(=N)N)C(=O)NCC(=O)N[C@@H]([C@@H](C)CC)C(=O)N3)C(=O)N[C@@H]([C@@H](C)CC)C(=O)N2 [RC-101, R9K-Retrocyclin] | as active as retrocyclin | inhibited the formation of HIV-1 proviral DNA | nearly completely protective | 0.00226 | 79000 | neither 20 μg/ml retrocyclin nor RC-101 were cytotoxic | – | – | – | –
CC[C@H](C)[C@@H]1NC(=O)CNC(=O)[C@H](CCCNC(=N)N)NC(=O)CNC(=O)[C@@H]2CSSC[C@H](NC1=O)C(=O)N[C@@H](CCCNC(=N)N)C(=O)N[C@H]1CSSC[C@H](NC(=O)[C@H](CCCNC(=N)N)NC(=O)[C@@H]3CSSC[C@H](NC(=O)[C@H]([C@@H](C)CC)NC1=O)C(=O)NCC(=O)N[C@@H](CCCNC(=N)N)C(=O)NCC(=O)N[C@@H]([C@@H](C)CC)C(=O)N3)C(=O)N[C@@H]([C@@H](C)CC)C(=O)N2 [RC-100, Retrocyclin] (cyclo(GICRCICGRGICRCICGR); disulfide 3-16, 5-14, 7-12) | complete suppression; also recorded: uniformly protective | inhibited the formation of HIV-1 proviral DNA | modest protection | 0.0022 | 67700 | neither 20 μg/ml retrocyclin nor RC-101 were cytotoxic | ~1000 | 1.68e+06 | 1.58e+06 | 980000

— patent US7314858B2, “Retrocyclins: antiviral and antimicrobial peptides” (priority 2001, dated 2008)
